# Assay results published in article PMC4377976, “Bioactive Isopimarane Diterpenes from the Fungus, Epicoccum sp. HS-1, Associated with Apostichopus japonicus” (Marine Drugs, 2015).
# Biological target: α-glucosidase
# Assay: p-nitrophenyl glycoside hydrolysis assay, absorbance at […] nm
# Format: biochemical
row,IC50 [µM],Structure (SMILES)
1,11.9 ± 0.4,"C=C[C@]1(C)C=C2[C@@H](O)[C@@]3(O)OC[C@@]4(CCCC(C)(C)[C@@]43O)[C@@]2(O)CC1 [compound 2, 11-deoxydiaporthein A]"
2,4.6 ± 0.1,"C=C[C@@]1(C)C[C@@H](O)C2=C(C(=O)[C@@]3(O)OC[C@@]24CCCC(C)(C)[C@@]43O)[C@H]1OC [compound 1, Isopimarane diterpene (1)]"

row,Structure (SMILES),IC50 [µM]
1,"Oc1ccc(/C=C/c2cc(O)cc(O)c2)cc1 [Resveratrol, reference compound]",31.2 ± 4.4
